Measured values: the supplement of paper PMC10307832

How the values were obtained:
Experiment in all cases: relative viability (nuclei count vs DMSO), 5 days (fraction); higher = more cells survive
[1] = compound: C(C(=O)C(=O)O)Br [Bromopyruvate] + CC(=O)c1c(C)c2cnc(Nc3ccc(N4CCNCC4)cn3)nc2n(C2CCCC2)c1=O [Palbociclib] (partner 0.5 µM)
Outline: (§1)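 Each reported value is a median over duplicate plates. It expresses relative viability: treated-well nuclei count divided by vehicle-well nuclei count. Lung cancer cell lines in 1536-well plates were dosed by pin tool a day after seeding, alone with one drug or with a fixed anchor-drug dose plus five library-drug doses (not always all listed) in √10 steps, and nuclei were counted after 5 days.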

[2] = compound: CC(O)(CS(=O)(=O)c1ccc(F)cc1)C(=O)Nc1ccc(C#N)c(C(F)(F)F)c1 [Bicalutamide] + Nc1ncn([C@H]2C[C@H](O)[C@@H](CO)O2)c(=O)n1 [Decitabine] (partner 2 µM)
Outline: as §1

[3] = compound: C(C(=O)C(=O)O)Br [Bromopyruvate] + Nc1nc2[nH]cc(CCc3ccc(C(=O)N[C@@H](CCC(=O)O)C(=O)O)cc3)c2c(=O)[nH]1 [Pemetrexed] (partner 0.2 µM)
Outline: as §1

Bicalutamide + Alpelisib = compound: CC(O)(CS(=O)(=O)c1ccc(F)cc1)C(=O)Nc1ccc(C#N)c(C(F)(F)F)c1 [Bicalutamide] + Cc1nc(NC(=O)N2CCC[C@H]2C(N)=O)sc1-c1ccnc(C(C)(C)C(F)(F)F)c1 [Alpelisib] (partner 2 µM)
Outline: as §1

Cell Line | relative viability ([1]; first compound 1 µM) | relative viability ([1]; first compound 3.162 µM) | relative viability ([1]; first compound 10 µM) | relative viability ([1]; first compound 31.62 µM) | relative viability ([1]; first compound 100 µM) | relative viability ([2]; first compound 0.08 µM) | relative viability ([2]; first compound 0.253 µM) | relative viability ([2]; first compound 0.8 µM) | relative viability ([2]; first compound 2.53 µM) | relative viability ([3]; first compound 1 µM) | relative viability ([3]; first compound 3.162 µM) | relative viability ([3]; first compound 10 µM) | relative viability ([3]; first compound 31.62 µM) | relative viability ([3]; first compound 100 µM) | relative viability (Bicalutamide + Alpelisib; first compound 0.08 µM) | relative viability (Bicalutamide + Alpelisib; first compound 0.253 µM) | relative viability (Bicalutamide + Alpelisib; first compound 0.8 µM) | relative viability (Bicalutamide + Alpelisib; first compound 2.53 µM)
NCI-H1975 | 0.66 | 0.619 | 0.566 | 0.551 | 0.569 | 0.384 | 0.36 | 0.436 | 0.408 | 0.276 | 0.3 | 0.292 | 0.326 | 0.292 | 0.642 | 0.615 | 0.795 | 0.526
CAL-12T | 0.429 | 0.444 | 0.552 | 0.395 | 0.285 | – | – | – | – | 1.26 | 1.05 | 1.25 | 1.1 | 1.05 | 1.39 | 1.09 | 1.44 | 1.1
HCC-44 | 0.985 | 0.912 | 0.944 | 1.01 | 0.991 | 0.967 | 0.911 | 0.942 | 0.959 | 0.621 | 0.591 | 0.555 | 0.616 | 0.638 | 0.848 | 0.764 | 0.902 | 0.794
EKVX | 0.217 | 0.387 | 0.459 | 0.494 | 0.44 | 0.336 | 0.37 | 0.32 | 0.333 | 0.396 | 0.424 | 0.376 | 0.372 | 0.438 | 0.846 | 0.827 | 1.01 | 0.829
NCI-H1651 | 0.479 | 0.477 | 0.542 | 0.519 | 0.492 | 0.6 | 0.618 | 0.779 | 0.655 | 0.551 | 0.583 | 0.582 | 0.527 | 0.579 | 0.956 | 0.947 | 1.17 | 0.944
NCI-H1944 | 0.32 | 0.333 | 0.335 | 0.319 | 0.311 | 0.441 | 0.433 | 0.428 | 0.462 | 0.576 | 0.707 | 0.625 | 0.656 | 0.63 | 0.852 | 0.737 | 0.869 | 0.851
NCI-H1703 | – | – | – | – | – | – | – | – | – | – | – | – | – | – | 0.321 | 0.243 | 0.332 | 0.262
Calu-6 | – | – | – | – | – | – | – | – | – | – | – | – | – | – | 1.04 | 0.908 | 1.04 | 0.868
EBC-1 | – | – | – | – | – | – | – | – | – | – | – | – | – | – | 0.885 | 0.845 | 0.828 | 0.776
A-427 | 0.51 | 0.552 | 0.551 | 0.536 | 0.497 | 0.608 | 0.533 | 0.666 | 0.562 | 1.05 | 0.975 | 1.05 | 0.863 | 1.07 | 1.07 | 1.09 | 1.19 | 0.992
NCI-H2405 | 0.51 | 0.53 | 0.549 | – | 0.458 | 0.708 | 0.689 | 0.787 | 0.716 | 1.14 | 1.06 | 1.24 | – | 0.728 | 0.789 | 0.775 | 0.827 | 0.775
NCI-H1355 | 0.388 | 0.401 | 0.356 | 0.373 | 0.407 | 0.367 | 0.348 | 0.395 | 0.376 | 1.08 | 1.12 | 1.14 | 1.08 | 1.08 | 0.816 | 0.793 | 0.924 | 0.853
NCI-H358 | 0.113 | 0.132 | 0.168 | 0.127 | 0.142 | 0.224 | 0.224 | 0.193 | 0.204 | 0.147 | 0.145 | 0.164 | 0.17 | 0.183 | 0.808 | 0.904 | 0.936 | 0.992
RERF-LC-KJ | 1.04 | 1.18 | 1.19 | 1.14 | 0.966 | 0.745 | 0.631 | 0.837 | 0.66 | 0.49 | 0.507 | 0.457 | 0.49 | 0.468 | 0.756 | 0.81 | 0.948 | 0.777
NCI-H23 | 0.466 | 0.482 | 0.601 | 0.572 | 0.387 | 0.312 | 0.36 | 0.311 | 0.297 | 0.71 | 0.76 | 0.808 | 0.619 | 0.812 | 0.692 | 0.693 | 0.885 | 0.557
HOP-62 | 0.432 | 0.443 | 0.416 | 0.343 | 0.341 | 0.25 | 0.2 | 0.241 | 0.221 | 0.302 | 0.321 | 0.326 | 0.356 | 0.207 | 1.31 | 0.959 | 1.19 | 1.12
HARA | 0.254 | 0.283 | 0.296 | 0.259 | 0.261 | 0.632 | – | 0.536 | 0.574 | 0.275 | 0.232 | – | 0.219 | 0.271 | 1.01 | 0.767 | 0.931 | 0.876
PC-14 | 0.577 | 0.538 | 0.686 | 0.573 | 0.411 | 0.243 | 0.182 | 0.239 | 0.204 | 0.141 | 0.143 | 0.14 | 0.154 | 0.123 | 0.916 | 0.952 | 0.969 | 0.869
NCI-H1755 | 0.477 | 0.43 | 0.45 | 0.431 | 0.456 | 0.737 | 0.636 | 0.721 | 0.741 | 0.44 | 0.441 | 0.371 | 0.475 | 0.52 | 0.914 | 0.903 | 0.992 | 0.853
HCC-78 | 0.446 | 0.471 | 0.455 | 0.514 | 0.407 | 0.726 | 0.589 | 0.819 | 0.71 | 0.938 | 0.92 | 0.95 | 0.895 | 0.95 | 0.288 | 0.327 | 0.452 | 0.253
IA-LM | – | – | – | – | – | – | – | – | – | – | – | – | – | – | 0.801 | 0.793 | 0.964 | 0.782
